Assay results as given in PubChem BioAssay (NCI).
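96-well plates; 48 h exposure; 5 concentrations. Endpoints by linear interpolation between flanking doses. Not reached: highest tested concentration assigned. GI50: concentration for 50% inhibition of growth. TGI marks complete inhibition of growth.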

Legend:
Assay in all cases: NCI-60 cell line screen, 48 h
[1] = tested on: HOP-62 NSCLC
[2] = tested on: A498 renal
[3] = tested on: SW-620 colon
[4] = tested on: K-562 leukemia
[5] = tested on: UACC-62 melanoma
[6] = tested on: U251 CNS
[7] = tested on: SNB-75 CNS
[8] = tested on: SR leukemia
[9] = tested on: NCI-H226 lung
[10] = tested on: BT-549 breast

SMILES | TGI [1] [µM] | TGI [2] [µM] | TGI [3] [µM] | TGI [4] [µM] | TGI [5] [µM] | TGI [6] [µM] | TGI [7] [µM] | TGI [8] [µM] | TGI [9] [µM] | GI50 [1] [µM] | GI50 [9] [µM] | GI50 [10] [µM] | TGI [10] [µM] | GI50 [2] [µM] | GI50 [3] [µM] | GI50 [4] [µM] | GI50 [5] [µM] | GI50 [6] [µM] | GI50 [7] [µM] | GI50 [8] [µM]
CCOC(=O)NC(=O)c1cn(CCCOC(=O)CCCCCCCCC(=O)OCCCn2cc(C(=O)NC(=O)OCC)c(=O)[nH]c2=O)c(=O)[nH]c1=O | > 100 | 67.5 | 60.3 | 49.8 | 69.1 | 41.4 | > 100 | – | – | – | – | – | – | – | – | – | – | – | – | –
O=C(O)c1ccc([N+](=O)[O-])c2c(=O)c3ccccc3[nH]c12 | > 100 | > 100 | > 100 | > 100 | > 100 | > 100 | > 100 | > 100 | – | – | – | – | – | – | – | – | – | – | – | –
COc1ccc(C=NC23CC4CC(CC(C4)C2)C3)cc1 | > 100 | > 100 | > 100 | > 100 | > 100 | > 100 | > 100 | > 100 | > 100 | – | – | – | – | – | – | – | – | – | – | –
C#CC[C@H](c1nc2cc(Cl)ccc2c(=O)n1Nc1ccccc1)N(CCCN)C(=O)c1cccc(Cl)c1F | 2.23 | 3.43 | 1.81 | 1.85 | 2 | 1.27 | 1.53 | – | 4.56 | 0.842 | 1.63 | 0.798 | 3.33 | 0.626 | 0.237 | 0.0968 | 0.636 | 0.293 | 0.251 | –
C=C(CN1CCN(c2ccccc2F)CC1)c1ccc(C(=O)Nc2ccccc2N)cc1 | 9.45 | 22.9 | > 100 | > 100 | 18.3 | 14.7 | 8.14 | – | 17.3 | 1.15 | 2.34 | 1.46 | 8.82 | 2.51 | 1.97 | 0.986 | 1.16 | 1.4 | 2.27 | –
O=Cc1[nH]c2ccccc2c1Br | 40.6 | 33.6 | > 100 | 47.4 | 33.7 | 51.1 | 52.6 | 61.1 | > 100 | – | – | – | – | – | – | – | – | – | – | –
Cc1cc2c(c(C#N)c1C)NC(=O)C(CC(=O)O)C2=O (stereo not given) | > 100 | > 100 | > 100 | > 100 | > 100 | > 100 | > 100 | – | > 100 | – | – | – | – | – | – | – | – | – | – | –
Cc1cccc(C)c1NC(=O)C(=O)CC(=O)CO | > 100 | > 100 | > 100 | > 100 | > 100 | > 100 | > 100 | > 100 | > 100 | – | – | – | – | – | – | – | – | – | – | –
O=C(c1ccc(NCN2C(=O)CCC2=O)cc1)c1ccc(NCN2C(=O)CCC2=O)cc1 | > 100 | – | > 100 | > 100 | > 100 | > 100 | – | – | – | – | – | – | – | – | – | – | – | – | – | –
O=C1NC2(O)c3ccccc3C(=O)C2(O)N1c1ccccc1 (stereo not given) | – | – | > 100 | > 100 | > 100 | > 100 | > 100 | > 100 | – | – | – | – | – | – | – | – | – | – | – | –
CCS(=O)(=O)c1ccc(OC)c(Nc2nccc(N(C)c3ccc4c(C)[nH]nc4c3)n2)c1 | > 25 | 6.58 | > 25 | 16.8 | 24.5 | > 25 | 8.38 | – | > 21.1 | 6.72 | 1.85 | 5.76 | 14.5 | 1.18 | 7.85 | 2.79 | 6.79 | 7.28 | 2.94 | –
CC(=O)O[C@@H]1CC(C)C2CC2C2=C(C(O)OC2O)[C@@H]1C(C)CCC=C(C)C (stereo not given in full) | 56 | > 100 | 51.2 | 66.9 | 67.3 | 41.1 | 76.1 | – | 36.5 | – | – | – | – | – | – | – | – | – | – | –
COC1=C(C(=O)OC(C)(C)C)[C@]2(C)C(C(=O)OC(C)(C)C)C(OC)=C(C(=O)OC(C)(C)C)[C@]2(C)C1C(=O)OC(C)(C)C (stereo not given in full) | > 100 | > 100 | > 100 | > 100 | > 100 | > 100 | > 100 | > 100 | > 100 | – | – | – | – | – | – | – | – | – | – | –
Cc1cc(N/N=C/c2nc(-c3ccccc3)oc2C)c2cc(Cl)ccc2n1 | 3.66 | 18.1 | 3.7 | – | 3.36 | 3.34 | 3.34 | – | 6.88 | 1.85 | 2.38 | 14.9 | 29.3 | 3.2 | 1.81 | – | 1.7 | 1.78 | 1.63 | –
Fc1ccc(-c2nnc3sc(-c4cccc(Cl)c4)nn23)cc1Cl | > 100 | > 100 | > 100 | > 100 | > 100 | > 100 | > 100 | – | > 100 | > 100 | > 100 | > 100 | > 100 | > 100 | > 100 | > 100 | > 100 | > 100 | 44.4 | –
O[C@]12CCCC[C@H]1CCC2 | > 100 | > 100 | > 100 | > 100 | > 100 | > 100 | > 100 | – | – | – | – | – | – | – | – | – | – | – | – | –
CC(=S)NNC(=O)c1ccncc1 | > 100 | > 100 | > 100 | > 100 | > 100 | > 100 | > 100 | > 100 | > 100 | – | – | – | – | – | – | – | – | – | – | –
CNC1NC(=O)c2ccccc2N1Cc1ccc(F)cc1 (stereo not given) | > 100 | > 100 | > 100 | > 100 | > 100 | > 100 | > 100 | – | > 100 | – | – | – | > 100 | – | – | – | – | – | – | –
COC1CC(OS(=O)(=O)c2ccc(C)cc2)C(OS(=O)(=O)c2ccc(C)cc2)C(COS(=O)(=O)c2ccc(C)cc2)O1 (stereo not given) | 5.09 | – | 57.7 | > 100 | 18.6 | 11.6 | 2.48 | 33.6 | 10.4 | – | – | – | – | – | – | – | – | – | – | –
NC(=NC1CCCCCC1)c1ccc(N2CCN(c3ccc(C(N)=NC4CCCCCC4)cc3)CC2)cc1 | 22.6 | – | > 50 | > 50 | 17.2 | 11.3 | – | 19.8 | 28.9 | 8.48 | 7.64 | 2.1 | 5.48 | – | 10.8 | 4.57 | 7.8 | 3.02 | – | 6.64
